Laboratory results reported in patent US20060063717A1, “Novel inhibitor of beta amyloid cleavage” (Pfizer Inc, priority 2001, published 2006).
*1 amine or outer side, *2 acyl side, *3 side chain or, on linkers, in order; H or OH if unused. Where a SMILES comes first, the peptide text is derived from it. [ ]: non-standard residue; d: D form. X1 = CC(C)(O)[C@H](C[C@H](O)[C@H](CC1CCCCC1)N[*:1])C(=O)[*:2]

Target: β-Secretase (Homo sapiens, UniProt P56817)
Conditions: in-vitro ELISA; βAP produced in presence of β-Secretase and APP versus control without inhibitor
Excerpt: Such assays, which are well known in the art, measure the concentration of βAP produced (by detection of an antibody against the amino terminus of βAP) in the presence of β-Secretase and APP versus control experiments in the absence of inhibitor.

Sequence of β-Secretase (P56817 46-501): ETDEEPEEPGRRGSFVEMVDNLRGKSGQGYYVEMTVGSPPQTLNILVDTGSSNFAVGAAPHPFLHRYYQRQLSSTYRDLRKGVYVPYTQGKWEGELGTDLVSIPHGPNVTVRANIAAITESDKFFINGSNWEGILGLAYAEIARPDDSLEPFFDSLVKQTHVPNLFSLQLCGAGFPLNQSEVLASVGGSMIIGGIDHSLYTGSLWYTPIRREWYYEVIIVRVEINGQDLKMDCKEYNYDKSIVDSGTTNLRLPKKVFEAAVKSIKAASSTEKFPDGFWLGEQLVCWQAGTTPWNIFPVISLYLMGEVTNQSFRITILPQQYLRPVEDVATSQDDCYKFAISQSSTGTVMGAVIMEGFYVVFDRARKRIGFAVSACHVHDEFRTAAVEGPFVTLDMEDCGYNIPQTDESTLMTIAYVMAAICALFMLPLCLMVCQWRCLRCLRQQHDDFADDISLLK

With CC(C)[C@H](NC(=O)[C@@H](N)CCC(=O)O)C(=O)N[C@@H](CC(N)=O)C(=O)N[C@@H](CC1CCCCC1)[C@@H](O)C[C@H](C(=O)N[C@H](C)C(=O)N[C@H](CCC(=O)O)C(=O)N[C@H](Cc1ccccc1)C(=O)O)C(C)(C)O [compound of formula I] (H-EVN[X1][dA][dE][dF]-OH) the IC50 was 49 nM.
